# Target: GABA-A receptor
# Assay: 35S-TBPS binding assay (GABAA receptor binding ability test)
# Set-up: species or system Sprague-Dawley rat
# Conditions: rat cerebral cortex cell membrane, 5 μM GABA, 2 nM 35S-TBPS; read-out: 35S-TBPS bindng test: IC50 on inhibiting the TBPS binding activity
# Protocol: 1.2 Experimental Procedures 1.2.1 Extraction of Cerebral Cortex Cell Membrane:
# 1. The cerebral cortex of male Sprague-Dawley rat was isolated.
# 2. A pre-chilled 0.32 M sucrose solution (one tablet of protease inhibitor was added per 100 ml) was added to the cerebral cortex (the volume of sucrose solution was 10 times the volume of the cerebral cortex). The mixture was crushed with a 50 mL glass tissue homogenizer in batches and mixed well.
# 3. The mixture was centrifuged at 1500 g, 4° C. for 10 minutes, and the supernatant was collected.
# 4. The mixture was centrifuged at 20000 g, 4° C. for 30 minutes, and the supernatant was discarded.
# 5. The precipitate was resuspended with the pre-chilled phosphate buffer saline (PBS) (one tablet of protease inhibitor was added per 100 ml). An average of 4 ml of PBS was added per rat, and the mixture was mixed well by a glass tissue homogenizer.
# 6. The mixture was centrifuged at 10000 g, 4° C. for 10 minutes, and the supernatant was discarded.
# 7. Steps 5 and 6 were repeated three times.
# 8. Finally, the precipitate was resuspended with 4 volumes of PBS. The resulting solution was dispensed, frozen in liquid nitrogen, and stored at −80° C.
# 9. The protein concentration was measured by the bicinchoninic acid (BCA) method.
# 1.2.2 ^35S-TBPS Binding Assay
# 1. 230 μL of PBS was added to each well of a well plate with 1.1 ml volume.
# 2. 60 μL of the cerebral cortex cell membrane (5 μg/μL) solution was added to each well, and the mixture was mixed well.
# 3. The test compound (3 μL per well) was added, and the plate was incubated at 25° C. for 5 minutes. The DMSO concentration was 1%. The initial compound concentration was 1 μM, and a 3-fold dilution in gradient was carried out to obtain a total of 8 gradients and 2 replicates. 1% DMSO was used as a negative control, and 10 μM P026-2 was used as a positive control.
# 4. GABA was added at a final concentration of 5 μM, and incubated at 25° C. for 5 minutes. 1 mM GABA solution was formulated, and 1.5 μL of the solution was added to each well.
# 5. ^35S-TBPS was added at a final concentration of 2 nM. The concentration of isotope mother solution was 9.7 μM. After dilution with PBS for 100 times, 6 μL of the diluted isotope solution was added to each well.
# 6. The plate was incubated at 4° C. for 20 hours.
# 7. The FilterMate GF/C plate was pre-treated with 0.5% PEI, and incubated at 4° C. for 1 hour.
# 8. The FilterMate GF/C plate was washed with Universal Harvester twice, 50 ml PBS each time.
# 9. The reaction solution was transferred to the GF/C plate, and each well was washed 4 times with 900 μL of PBS.
# 10. The washed GF/C plate was placed at 55° C. and dried for 10 minutes.
# 11. 40 μL of scintillation solution was added to each well, and the CPM value was read with TopCount.
# 1.2.3 Experimental Data Processing Method:
# In the experiment, the CPM (counts per minute) value was read with TopCount. According to the readings of the High control (DMSO) and the Low control ([…] of the positive compound) experimental groups, the […] inhibition was calculated based on the following formula: % Inhibition=100×(CPMHigh control−CPMSample)/(CPMHigh control−CPMLow control)
# The IC50 of the compound was calculated according to the following 4-parameter nonlinear logic formula: Y=Bottom+(Top−Bottom)/(1+10^((Log IC50−X)*Hill Slope)),
# wherein: • X represents the log of compound concentration, • Y represents the 0 Inhibition.
# The effect of the compound of the present invention on the TBPS binding activity was determined by the above test, and the measured IC50 values are shown in Table 1.
row,Structure (SMILES),IC50
1,"C[C@@]1(O)CC[C@H]2[C@H](CC[C@@H]3[C@@H]2CC[C@@]2(C)[C@H]3[C@@H]3C[C@@H]3[C@@H]2C(=O)Cn2ccnc2)C1 [Example 98, 1-((2R,4aS,4bR,6aS,7S,7aS,8aR,8bR,8cR,10aR)-2-Hydroxy-2,6a-dimethyloctadecahydrocyclopropa[4,5]cyclopenta[1,2-a]phenanthren-7-yl)-2-(1H-imidazol-1-yl)ethan-1-one]",37.8 nM
2,"Cc1nnnn1CC(=O)[C@H]1[C@H]2C[C@H]2[C@H]2[C@@H]3CC[C@@H]4C[C@](C)(O)CC[C@@H]4[C@H]3CC[C@@]21C [Example 101, 1-((2R,4aS,4bR,6aS,7S,7aS,8aR,8bR,8cR,10aR)-2-Hydroxy-2,6a-dimethyloctadecahydrocyclopropa[4,5]cyclopenta[1,2-a]phenanthren-7-yl)-2-(5-methyl-1H-tetrazol-1-yl)ethan-1-one]",11.4 nM
3,"C[C@@]1(O)CC[C@H]2[C@H](CC[C@@H]3[C@@H]2CC[C@@]2(C)[C@H]3[C@@H]3C[C@@H]3[C@@H]2C(=O)Cn2cc(C(=O)N3CCC3)cn2)C1 [Example 102, 2-(4-(Azetidine-1-carbonyl)-1H-pyrazol-1-yl)-1-((2R,4aS,4bR,6aS,7S,7aS,8aR,8bR,8c R,10aR)-2-hydroxy-2,6a-dimethyloctadecahydrocyclopropa[4,5]cyclopenta[1,2-a]phenanthren-7-yl)ethan-1-one]",65 nM
4,"CSc1cnn(CC(=O)[C@H]2[C@H]3C[C@H]3[C@H]3[C@@H]4CC[C@@H]5C[C@](C)(O)CC[C@@H]5[C@H]4CC[C@@]32C)c1 [Example 122, 1-((2R,4aS,4bR,6aS,7S,7aS,8aR,8bR,8cR,10aR)-2-Hydroxy-2,6a-dimethyloctadecahydrocyclopropa[4,5]cyclopenta[1,2-a]phenanthren-7-yl)-2-(4-(methylthio)-1H-pyrazol-1-yl)ethan-1-one]",46 nM
5,"C[C@@]1(O)CC[C@H]2[C@H](CC[C@@H]3[C@@H]2CC[C@@]2(C)[C@H]3[C@@H]3C[C@@H]3[C@@H]2C(=O)COc2ccc(C#N)cc2F)C1 [Example 125, 3-Fluoro-4-(2-((2R,4aS,4bR,6aS,7S,7aS,8aR,8bR,8cR,10aR)-2-hydroxy-2,6a-dimethyloctadecahydrocyclopropa[4,5]cyclopenta[1,2-a]phenanthren-7-yl)-2-oxoethoxy)benzonitrile]",30.7 nM
6,"C[C@@]1(O)CC[C@H]2[C@H](CC[C@@H]3[C@@H]2CC[C@@]2(C)[C@H]3[C@@H]3C[C@@H]3[C@@H]2C(=O)COc2ccc(F)cc2C#N)C1 [Example 126, 5-Fluoro-2-(2-((2R,4aS,4bR,6aS,7S,7aS,8aR,8bR,8cR,10aR)-2-hydroxy-2,6a-dimethyloctadecahydrocyclopropa[4,5]cyclopenta[1,2-a]phenanthren-7-yl)-2-oxoethoxy)benzonitrile]",4.9 nM
7,"C[C@@]1(O)CC[C@H]2[C@H](CC[C@@H]3[C@@H]2CC[C@@]2(C)[C@H]3[C@@H]3C[C@@H]3[C@@H]2C(=O)Cn2nc(C#N)cc2C#N)C1 [Example 127, 1-(2-((2R,4aS,4bR,6aS,7S,7aS,8aR,8bR,8cR,10aR)-2-Hydroxy-2,6a-dimethyloctadecahydrocyclopropa[4,5]cyclopenta[1,2-a]phenanthren-7-yl)-2-oxoethyl)-1H-pyrazole-3,5-dicarbonitrile]",6.1 nM
8,"C[C@@]1(O)CC[C@H]2[C@H](CC[C@@H]3[C@@H]2CC[C@@]2(C)[C@H]3[C@@H]3C[C@@H]3[C@@H]2C(=O)Cn2cc(-c3ncco3)cn2)C1 [Example 128, 1-((2R,4aS,4bR,6aS,7S,7aS,8aR,8bR,8cR,10aR)-2-Hydroxy-2,6a-dimethyloctadecahydrocyclopropa[4,5]cyclopenta[1,2-a]phenanthren-7-yl)-2-(4-(oxazol-2-yl)-1H-pyrazol-1-yl)ethan-1-one]",15.8 nM
9,"C[C@@H]1C[C@H](C(=O)Cn2ccc(C(F)(F)F)n2)[C@@]2(C)CC[C@H]3[C@@H](CC[C@@H]4C[C@](C)(O)CC[C@@H]43)[C@H]12 [Example 131, 1-((3R,5R,8R,9R,10S,13S,14S,15R,17S)-3-Hydroxy-3,13,15-trimethylhexadecahydro-1H-cyclopenta[a]phenanthren-17-yl)-2-(3-(trifluoromethyl)-1H-pyrazol-1-yl)ethan-1-one]",8 nM
10,"C[C@@H]1C[C@H](C(=O)Cn2ccnn2)[C@@]2(C)CC[C@H]3[C@@H](CC[C@@H]4C[C@](C)(O)CC[C@@H]43)[C@H]12 [Example 132, 1-((3R,5R,8R,9R,10S,13S,14S,15R,17S)-3-Hydroxy-3,13,15-trimethylhexadecahydro-1H-cyclopenta[a]phenanthren-17-yl)-2-(1H-1,2,3-triazol-1-yl)ethan-1-one]",24.6 nM
11,"C[C@@H]1C[C@H](C(=O)Cn2cc(C(=O)N3CCC3)cn2)[C@@]2(C)CC[C@H]3[C@@H](CC[C@@H]4C[C@](C)(O)CC[C@@H]43)[C@H]12 [Example 133, 2-(4-(Azetidine-1-carbonyl)-1H-pyrazol-1-yl)-1-((3R,5R,8R,9R,10S,13S,14S,15R,17S)-3-hydroxy-3,13,15-trimethylhexadecahydro-1H-cyclopenta[a]phenanthren-17-yl)ethan-1-one]",17.8 nM
12,"C[C@@H]1C[C@H](C(=O)CN2C(=O)CSC2=O)[C@@]2(C)CC[C@H]3[C@@H](CC[C@@H]4C[C@](C)(O)CC[C@@H]43)[C@H]12 [Example 136, 3-(2-((3R,5R,8R,9R,10S,13S,14S,15R,17S)-3-Hydroxy-3,13,15-trimethylhexadecahydro-1H-cyclopenta[a]phenanthren-17-yl)-2-oxoethyl)thiazolidine-2,4-dione]",26.5 nM
13,"CC[C@@H]1C[C@H](C(=O)Cn2nnc(C)n2)[C@@]2(C)CC[C@H]3[C@@H](CC[C@@H]4C[C@](C)(O)CC[C@@H]43)[C@H]12 [Example 139, 1-((3R,5R,8R,9R,10S,13S,14S,15R,17S)-15-Ethyl-3-hydroxy-3,13-dimethylhexadecahydro-1H-cyclopenta[a]phenanthren-17-yl)-2-(5-methyl-2H-tetrazol-2-yl)ethan-1-one]",27 nM
14,"CC[C@@H]1C[C@H](C(=O)Cn2nc(C#N)cc2C#N)[C@@]2(C)CC[C@H]3[C@@H](CC[C@@H]4C[C@](C)(O)CC[C@@H]43)[C@H]12 [Example 142, 1-(2-((3R,5R,8R,9R,10S,13S,14S,15R,17S)-15-Ethyl-3-hydroxy-3,13-dimethylhexadecahydro-1H-cyclopenta[a]phenanthren-17-yl)-2-oxoethyl)-1H-pyrazole-3,5-dicarbonitrile]",16.2 nM
15,"C[C@@]1(O)CC[C@H]2[C@H](CC[C@@H]3[C@@H]2CC[C@@]2(C)[C@H]3[C@H](C3CC3)C[C@@H]2C(=O)Cn2ccc(C(F)(F)F)n2)C1 [Example 144, 1-((3R,5R,8R,9R,10S,13S,14S,15S,17S)-15-Cyclopropyl-3-hydroxy-3,13-dimethylhexadecahydro-1H-cyclopenta[a]phenanthren-17-yl)-2-(3-(trifluoromethyl)-1H-pyrazol-1-yl)ethan-1-one]",18.6 nM
16,"C[C@@]1(O)CC[C@H]2[C@H](CC[C@@H]3[C@@H]2CC[C@@]2(C)[C@H]3[C@H](C3CC3)C[C@@H]2C(=O)Cn2cc(C#N)c(Cl)n2)C1 [Example 147, 3-Chloro-1-(2-((3R,5R,8R,9R,10S,13S,14S,15S,17S)-15-cyclopropyl-3-hydroxy-3,13-dimethylhexadecahydro-1H-cyclopenta[a]phenanthren-17-yl)-2-oxoethyl)-1H-pyrazole-4-carbonitrile]",24.4 nM
